Earlier results on 1 compound are cited in paper PMC8235783, “Radiopharmaceutical Formulation and Preclinical Testing of ^68Ga-Labeled DOTA-MGS5 for the Regulatory Approval of a First Exploratory Clinical Trial” (Pharmaceuticals, 2021).

For the data set the following is noted: injected dose of 150 MBq; cited from earlier work. The procedure: When extrapolating the biodistribution data from mice to humans, a whole-body effective dose of 0.0102 mSv/MBq for men and of 0.0131 mSv/MBq for women was calculated. In Table 4, a summary of the calculated organ absorbed doses is given. At a maximum injected activity of 185 MBq, a whole-body radiation dose of 1.9–2.4 mSv can be anticipated for a PET examination with ^68Ga-DOTA-MGS5. The radiation exposure from the radioactive substance is in a similar range of a low-dose CT scan of 3–6 mSv. Due to the potential hazards of ionizing radiation, the dose of the PET/CT scan should be kept a ...

Regarding `O=C([O-])CN(CCN(CC(=O)[O-])Cc1cc(CCC(=O)NCCCCCC(=O)NCCCC[C@H](NC(=O)N[C@@H](CCC(=O)O)C(=O)O)C(=O)O)ccc1[O-])Cc1cc(CCC(=O)O)ccc1[O-].[68Ga+3].[OH3+]` [^68Ga-PSMA-11], the effective radiation dose is 2.4 mSv.
